Reference: ChEMBL document CHEMBL4842344, “Design, synthesis and biological activity evaluation of novel scopoletin-NO donor derivatives against MCF-7 human breast cancer in vitro and in vivo” (Eur J Med Chem, 2021)
The source made the active and inactive calls. No cut-off for these calls is given here.

How the values were obtained:
[1] = tested on: MCF7; test: Antiproliferative activity against human MCF7 cells assessed as inhibition of cell growth measured after 48 hrs by MTT assay; format: functional, cell-based; conditions: MCF7, 48 h
[2] = tested on: MDA-MB-231; test: Antiproliferative activity against human MDA-MB-231 cells assessed as inhibition of cell growth measured after 48 hrs by MTT assay; format: functional, cell-based; conditions: MDA-MB-231, 48 h
[3] = tested on: MCF-10A; test: Cytotoxicity against human MCF-10A cells assessed as reduction in cell viability measured after 48 hrs by MTT assay; format: cell-based
[4] = tested on: MCF7; test: Inhibition of cell proliferation in human MCF7 cells assessed as increase in intracellular NO production at 25 uM measured after 2.5 hrs by nitric oxide assay; format: functional, cell-based

IC50 [1]	IC50 [2]	Compound	IC50 [3]	Activity [4]
600 nM	690 nM	COc1cc2cc(C(=O)NCCCc3ccc(F)cc3)c(=O)oc2cc1OCCCOc1no[n+]([O-])c1S(=O)(=O)c1ccccc1	8920 nM	Active
740 nM	1060 nM	COc1cc2cc(C(=O)NCc3ccccc3)c(=O)oc2cc1OCCCOc1no[n+]([O-])c1S(=O)(=O)c1ccccc1	7030 nM	Active
440 nM	1110 nM	COc1cc2cc(C(=O)NCCc3ccc(F)cc3)c(=O)oc2cc1OCCCOc1no[n+]([O-])c1S(=O)(=O)c1ccccc1	7950 nM	Active
740 nM	1190 nM	COc1cc2cc(C(=O)Nc3ccccc3)c(=O)oc2cc1OCCCOc1no[n+]([O-])c1S(=O)(=O)c1ccccc1	9670 nM	Active
